# Measurements: patent US20240043448A1, “Small Molecule Inhibitors of KRAS G12C Mutant” (Merck Sharp & Dohme LLC, priority 2019, published 2024)
# Where two headings read alike, the source gives them in different places.
# Assays:
# [1] = biological target: Biotinylated KRAS G12C protein (Homo sapiens (Human), UniProt P01116, C118S/C51S/C80L/G12C); experiment: SOS-catalyzed nucleotide exchange assay (TR-FRET); assay type: biochemical; conditions: in vitro apparent potency; preincubation time of 60 minutes prior to addition of SOS
# Sequence of Biotinylated KRAS G12C protein (P01116 other isoform, or with tags, fused parts or gaps, stated change not applied): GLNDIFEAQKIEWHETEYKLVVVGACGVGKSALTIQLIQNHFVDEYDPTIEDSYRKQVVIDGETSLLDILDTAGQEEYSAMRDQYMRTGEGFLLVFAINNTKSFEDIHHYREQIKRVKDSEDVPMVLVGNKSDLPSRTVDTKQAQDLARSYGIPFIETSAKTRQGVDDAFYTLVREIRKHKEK
# How it was run: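 Biotinylated KRAS G12C preloaded with Bodipy-GDP and Tb-streptavidin, then incubated with compound (10-point, 3-fold series) for 60 min at RT. Exchange started with SOS and GTP for 60 min. TR-FRET 520/495 ratio normalised to DMSO and saturating-inhibitor controls; four-parameter fit.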
# [2] = system: phospho-ERK; experiment: Cellular phospho-ERK assay; assay type: cell-based; conditions: NCI-H358 cells, 2 hour incubation, ratio of p-Erk vs total Erk, read-out: IC50 (nM) pERK (Cell)
# How it was run: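 NCI-H358 cells seeded overnight, then exposed to compound dose-response titrations for 2 hours at 37° C. in RPMI. Lysates assayed by AlphaLISA SureFire Ultra multiplex for p-Erk and total Erk; ratio p-Erk/total Erk used as readout, IC50 from 4-parameter logistic fit.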
"IC50 ([2]; Homo sapiens, NCI-H358, 2 h)",SMILES,IC50 [1],IC50 [2]
15 nM,"C=CC(=O)N1CCN(c2nc(=O)n3c4nc(c(F)cc24)-c2c(ccc(F)c2F)OCC(F)(F)CCc2ccnc(C(C)C)c2-3)CC1 [Example 65, 12,12,17,18,21-pentafluoro-6-(propan-2-yl)-2-[4-(prop-2-enoyl)piperazin-1-yl]-10,11,12,13-tetrahydro-4H-1,19-(ethanediylidene)pyrido[4,3-f]pyrimido[1,6-h][1,8,10] benzoxadiazacyclotri-decin-4-one]",2.6 nM,
,"C=CC(=O)N1C[C@@H](C)N(c2nc(=O)n3c4nc(c(Cl)cc24)-c2c(F)ccc(F)c2OCCOc2ccnc(C(C)C)c2-3)C[C@@H]1C [Example 51-1, (5aSa,17aRa)-20-Chloro-2-[(2S,5R)-2,5-dimethyl-4-(prop-2-enoyl)piperazin-1-yl]-14,17-difluoro-6-(propan-2-yl)-11,12-di[(^2H)hydro](11,12-^2H2)-4H-1,18-(ethanediylidene)pyrido[4,3-e]pyrimido[1,6-g][1,4,7,9]benzodioxadiazacyclododecin-4-one]",1 nM,13 nM
